According to ChEMBL document CHEMBL5584307, “Discovery of a Potent and Orally Bioavailable Xanthine Oxidase/Urate Transporter 1 Dual Inhibitor as a Potential Treatment for Hyperuricemia and Gout” (J Med Chem, 2024):

How the values were obtained:
[1] = Ratio of drug concentration in Sprague-Dawley rat liver to plasma at 3 mg/kg, po measured for 24 hrs by LC-MS/MS analysis; format: ADME, organism-based; conditions: liver and plasma
[2] = Toxicity in cynomolgous monkey assessed as increase in fluid feces at 90 to 200 mg/kg/day for 28 days consecutively; format: organism-based, Macaca fascicularis; conditions: cynomolgus monkey, in vivo, 672 h; dose 90-200 mg/kg/day, time 28 day
[3] = Half life in overnight-fasted Sprague-Dawley rat at 5 mg/kg, po measured upto 24 hrs by LC-MS/MS analysis; format: ADME, organism-based; conditions: in vivo
[4] = Half life in Tufted capuchin monkey at 100 mg/kg, po measured for 24 hrs by LC-MS/MS analysis; format: ADME, organism-based; conditions: sapajus apella, in vivo
[5] = AUC (0 to t) in male cynomolgous monkey at 30 mg/kg/day for 28 days; format: ADME, organism-based, Macaca fascicularis; conditions: cynomolgus monkey, in vivo, time 28 day
[6] = Toxicity in rat assessed as decrease in food consumption at 60 to 120 mg/kg/day for 28 days; format: organism-based; conditions: in vivo, 672 h, dose 60-120 mg/kg/day, time 28 day
Cytochrome P450 3A4 [7] = molecular target: T1, Cytochrome P450 3A4 (Homo sapiens, UniProt P08684); assay: Inhibition of CYP3A4 in human liver microsomes in presence of NADPH by LC-MS/MS analysis; format: ADME, Microsome
T1 sequence (P08684 whole entry): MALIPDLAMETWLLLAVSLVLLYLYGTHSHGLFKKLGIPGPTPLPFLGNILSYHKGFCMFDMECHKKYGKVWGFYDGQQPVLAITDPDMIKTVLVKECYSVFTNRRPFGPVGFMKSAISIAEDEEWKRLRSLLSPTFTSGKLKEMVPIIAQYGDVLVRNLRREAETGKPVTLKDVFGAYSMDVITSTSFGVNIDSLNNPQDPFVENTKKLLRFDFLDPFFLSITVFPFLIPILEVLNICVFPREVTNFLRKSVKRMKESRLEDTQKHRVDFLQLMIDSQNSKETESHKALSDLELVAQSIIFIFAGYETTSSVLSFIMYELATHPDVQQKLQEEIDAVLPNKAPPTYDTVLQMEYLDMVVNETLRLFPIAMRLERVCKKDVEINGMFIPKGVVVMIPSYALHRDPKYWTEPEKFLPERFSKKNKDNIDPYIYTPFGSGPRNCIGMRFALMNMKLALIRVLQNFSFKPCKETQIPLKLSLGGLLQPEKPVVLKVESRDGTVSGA

[8] = Genotoxicity in Salmonella typhimurium TA102 by Ames test; format: toxicity; conditions: salmonella enterica subsp. enterica serovar typhimurium
[9] = Oral bioavailability in Beagle dog at 5 mg/kg measured upto 24 hrs by LC-MS/MS analysis; format: ADME, organism-based, Canis lupus familiaris; conditions: in vivo
Sapajus apella [10] = conditions: dose 30.0 mg/kg/day, route po, time 3.0 day
Cytochrome P450 3A4 [11] = molecular target: T1, Cytochrome P450 3A4; assay: Induction of CYP3A4 in human hepatocytes at 50 uM incubated for 48 hrs with media containing compound renewal every 24 hrs followed by substrate addition measured after 30 mins by LC-MS/MS analysis; format: ADME, cell-based, Hepatocyte; conditions: 48.5 h
[12] = Toxicity in cynomolgous monkey assessed as distended abdomen at 200 mg/kg/day for 28 days consecutively; format: organism-based, Macaca fascicularis; conditions: cynomolgus monkey, in vivo, 672 h, time 28 day
[13] = Oral bioavailability in Cynomolgous monkey at 5 mg/kg measured upto 24 hrs by LC-MS/MS analysis; format: ADME, organism-based, Macaca fascicularis; conditions: cynomolgus monkey, in vivo
[14] = Cmax in Cynomolgous monkey at 5 mg/kg, po measured upto 24 hrs by LC-MS/MS analysis; format: ADME, organism-based, Macaca fascicularis; conditions: cynomolgus monkey, in vivo
[15] = Cmax in Beagle dog at 5 mg/kg, po measured upto 24 hrs by LC-MS/MS analysis; format: ADME, organism-based, Canis lupus familiaris; conditions: in vivo
[16] = Toxicity in cynomolgous monkey assessed as drug tolerance at 30 to 200 mg/kg/day for 28 days consecutively; format: organism-based, Macaca fascicularis; conditions: cynomolgus monkey, in vivo, 672 h; dose 30-200 mg/kg/day, time 28 day
[17] = AUC (last) in overnight-fasted Sprague-Dawley rat at 1 mg/kg, iv measured upto 24 hrs by LC-MS/MS analysis; format: ADME, organism-based; conditions: in vivo
[18] = Toxicity in rat assessed as mucosal necrosis in pylorus at 120 mg/kg/day for 28 days by H and E staining based analysis; format: organism-based; conditions: in vivo, 672 h, time 28 day
[19] = Cmax in Tufted capuchin monkey at 10 mg/kg, po measured for 24 hrs by LC-MS/MS analysis; format: ADME, organism-based; conditions: sapajus apella, in vivo
Cytochrome P450 2C8 = molecular target: T2, Cytochrome P450 2C8 (Homo sapiens, UniProt P10632); assay: Inhibition of CYP2C8 in human liver microsomes in presence of NADPH by LC-MS/MS analysis; format: ADME, Microsome
T2 sequence (P10632 whole entry): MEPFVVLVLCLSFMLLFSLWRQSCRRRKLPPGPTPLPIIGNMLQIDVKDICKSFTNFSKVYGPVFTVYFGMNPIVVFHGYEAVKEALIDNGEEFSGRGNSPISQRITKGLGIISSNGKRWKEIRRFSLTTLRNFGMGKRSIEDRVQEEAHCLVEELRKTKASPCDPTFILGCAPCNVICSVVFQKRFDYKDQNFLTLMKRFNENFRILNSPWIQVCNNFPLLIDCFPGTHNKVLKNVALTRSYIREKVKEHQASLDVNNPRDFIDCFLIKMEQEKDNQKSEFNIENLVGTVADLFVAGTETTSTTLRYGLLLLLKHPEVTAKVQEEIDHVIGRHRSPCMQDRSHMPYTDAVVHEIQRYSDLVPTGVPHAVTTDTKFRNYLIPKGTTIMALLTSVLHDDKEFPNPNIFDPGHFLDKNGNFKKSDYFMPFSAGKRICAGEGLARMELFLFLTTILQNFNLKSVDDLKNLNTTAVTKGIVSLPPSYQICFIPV

[20] = Half life in Tufted capuchin monkey at 10 mg/kg, po measured for 24 hrs by LC-MS/MS analysis; format: ADME, organism-based; conditions: sapajus apella, in vivo
[21] = AUC (0 to t) in female cynomolgous monkey at 30 mg/kg/day for 28 days; format: ADME, organism-based, Macaca fascicularis; conditions: cynomolgus monkey, in vivo, time 28 day
[22] = Tmax in Tufted capuchin monkey at 10 mg/kg, po measured for 24 hrs by LC-MS/MS analysis; format: ADME, organism-based; conditions: sapajus apella, in vivo
[23] = Toxicity in rat assessed as increase in CHOL level at 120 mg/kg/day for 28 days; format: organism-based; conditions: in vivo, 672 h, time 28 day
[24] = Toxicity in rat assessed as diffuse hepatocytes hypertrophy at 120 mg/kg/day for 28 days by H and E staining based analysis; format: organism-based; conditions: in vivo, 672 h, time 28 day
[25] = Toxicity in cynomolgous monkey assessed as increase in vomiting at 90 to 200 mg/kg/day for 28 days consecutively; format: organism-based, Macaca fascicularis; conditions: cynomolgus monkey, in vivo, 672 h; dose 90-200 mg/kg/day, time 28 day
Sapajus apella [26] = assay: Urate lowering effect in Tufted capuchin monkey assessed as fraction excretion of uric acid at 100 mg/kg/day, po qd for 3 days consecutively relative to control; format: functional; conditions: time 3 day
Sapajus apella [27] = conditions: dose 100.0 mg/kg/day, route po, time 3.0 day
[28] = AUC (last) in Tufted capuchin monkey at 30 mg/kg, po measured for 24 hrs by LC-MS/MS analysis; format: ADME, organism-based; conditions: sapajus apella, in vivo
[29] = Tmax in Tufted capuchin monkey at 100 mg/kg, po measured for 24 hrs by LC-MS/MS analysis; format: ADME, organism-based; conditions: sapajus apella, in vivo

In the case of N#Cc1cc(-c2ccc(C(=O)O)c(O)c2)c2oc(F)cc2c1, the Kp at 24 h [1] is reported as 1.17, the Activity [2] is reported as “Toxic” and the half-life [3] is reported as 2.84 h. For the same compound, the half-life [4] was 3.21 h, the AUC(0-t) at 672 h [5] was 339 µg·h/mL and the Activity [6] was “Toxic”. The IC50 (Cytochrome P450 3A4 [7]) was greater than 50 µM, the Activity [8] was “Non-Toxic” and the bioavailability [9] was 69.9%. For the same compound, the AUC (Sapajus apella [10]) was 504000 ng·h/mL, the Activity (Cytochrome P450 3A4 [11]) was less than 20% and the Activity [12] was “Toxic”. It also gave a bioavailability [13] of 42.4%, a Cmax [14] of 3360 ng/mL and a Cmax [15] of 2530 ng/mL. For the same compound, the Activity [16] was “Non-Toxic”, the AUC(0-t) at 24 h [17] was 10.9 µg·h/mL and the Activity [18] was “Toxic”. It also gave a Cmax [19] of 2470 ng/mL, an IC50 (Cytochrome P450 2C8) of 12.2 µM and a half-life [20] of 1.52 h. For the same compound, the AUC(0-t) at 672 h [21] was 336 µg·h/mL, the Tmax [22] was 0.8 h and the Activity [23] was “Toxic”. The Activity [24] was “Toxic”, the Activity [25] was “Toxic” and the Activity (Sapajus apella [26]) was 23.55%. The AUC (Sapajus apella [27]) was 357000 ng·h/mL, the AUC(0-t) at 24 h [28] was 31.6 µg·h/mL and the Tmax [29] was 0.9 h.
